Holding throughout (format): functional
Test [1] deals with Human alphaherpesvirus 1. The experiment in a line: Antiviral activity against HSV1 H29S in african green monkey Vero cells assessed as log reduction in viral titers after 1 multiple round of replication at 12.5 ug/ml after 72 hrs.
Test [2] relates to Human alphaherpesvirus 1. The experiment in a line: Antiviral activity against HSV1 H29S in african green monkey Vero cells assessed as log reduction in viral titers after 1 multiple round of replication at 6.25 ug/ml after 72 hrs.
Test [3] relates to Human alphaherpesvirus 1. Kind of test: Antiviral activity against HSV1 H29S in african green monkey Vero cells assessed as log reduction in viral titers after 1 multiple round of replication at 50 ug/ml after 72 hrs.
Test [4] has as its system Human alphaherpesvirus 1. The experiment in a line: Antiviral activity against HSV1 H29S in african green monkey Vero cells assessed as log reduction in viral titers after 0.001 multiple round of replication at 25 ug/ml after 72 hrs.
Test [5] relates to Human alphaherpesvirus 1. Kind of test: Antiviral activity against HSV1 H29S in african green monkey Vero cells assessed as log reduction in viral titers after 0.001 multiple round of replication at 12.5 ug/ml after 72 hrs.
In test [6] the test system is Human alphaherpesvirus 1. Kind of test: Antiviral activity against HSV1 H29S in african green monkey Vero cells assessed as log reduction in viral titers after 0.001 multiple round of replication at 50 ug/ml after 72 hrs.
In test [7] the test system is Human alphaherpesvirus 1. Kind of test: Antiviral activity against HSV1 H29S in african green monkey Vero cells assessed as log reduction in viral titers after 1 multiple round of replication at 25 ug/ml after 72 hrs.
Test [8] deals with Human alphaherpesvirus 1. Kind of test: Antiviral activity against HSV1 H29S in african green monkey Vero cells assessed as log reduction in viral titers after 0.001 multiple round of replication at 6.25 ug/ml after 72 hrs.
Test [9] deals with Human alphaherpesvirus 1. The experiment in a line: Antiviral activity against HSV1 H29S in african green monkey Vero cells assessed as reduction in viral DNA synthesis after 1 multiple round of replication at 30 ug/ml after 18 hrs by agarose gel electrophoresis relative to control.
The subject of test [10] is Human alphaherpesvirus 1. Kind of test: Antiviral activity against HSV1 H29S in african green monkey Vero cells assessed as reduction in viral DNA synthesis after 1 multiple round of replication at 60 ug/ml after 18 hrs by agarose gel electrophoresis relative to control.
Another test relates to Influenza A virus. The experiment in a line: Antiviral activity against influenza A virus Hong Kong assessed as reduction in viral titers of reproduction at 100 ug/ml.

Consider `CC(C)=CCOC(=O)/C=C/c1ccc(O)c(O)c1` (stereo in doubt; form 1) [PRENYL CAFFEATE], for which the Activity in the test on Human alphaherpesvirus 1 [1] amounted to 1.5; with Human alphaherpesvirus 1 [2], 1; in the test with Human alphaherpesvirus 1 [3], 2.5; in the test on Human alphaherpesvirus 1 [4], 2; in the test with Human alphaherpesvirus 1 [5], 1.1; in the test with Human alphaherpesvirus 1 [6], 3.1. For the same compound, the Activity with Human alphaherpesvirus 1 [7] is on record as 2.5.
Consider `Nc1nc2c(ncn2COCCO)c(=O)[nH]1` [ACYCLOVIR], for which the Activity in the test with Human alphaherpesvirus 1 [4] stood at 3; with Human alphaherpesvirus 1 [5], 3; in the test on Human alphaherpesvirus 1 [6], 3.25; with Human alphaherpesvirus 1 [8] it was 2.
With `CC(C)=CCOC(=O)/C=C/c1ccc(O)c(O)c1` (stereo in doubt; form 2) [PRENYL CAFFEATE], the Activity with Human alphaherpesvirus 1 [1] came out at 2.5; in the test with Human alphaherpesvirus 1 [2] it was 1.75; with Human alphaherpesvirus 1 [3] it was 2.8; in the test with Human alphaherpesvirus 1 [4] it was 3.25; with Human alphaherpesvirus 1 [5], 1.25; in the test on Human alphaherpesvirus 1 [6], 3.6. In addition, the Activity in the test with Human alphaherpesvirus 1 [7] was 2.8; with Human alphaherpesvirus 1 [8] it was 0.6. For the same compound, the “fold change (FC)” value worked out at 8 in the test with Human alphaherpesvirus 1 [9] and 32 in the test on Human alphaherpesvirus 1 [10].
On to `COc1cc(/C=C/C(=O)OCCC(C)C)ccc1O` [ISOPENTYL FERULATE], for which, in the test on Influenza A virus, the “Selectivity Index” value was 8.

(Values after ChEMBL document CHEMBL1149068, “Comparison of the anti-herpes simplex virus activities of propolis and 3-methyl-but-2-enyl caffeate” (1994).)
